# According to PubChem BioAssay AID2060513 (Molecular Pharmacology Branch, DTP, NCI, 2025):
# Tested on: 299254-011-R-J1-PDC complex spheroids viability
# Assay: Anticancer human tumor 299254-011-R-J1-PDC patient-derived melanoma cell line growth inhibition [GQUAD]
# Details: for IC50: curve of first compound; for viability, T/C: stronger effect = lower value
# Summary of the method: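 Multi-cell-type spheroids of tumor cells with HUVEC and mesenchymal stem cells, treated with drug combinations. Concentrations descend in half-log steps from near clinical Cmax, or from 10 microM where Cmax is unknown; viability read-out.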
# [1] = second compound 0.0316 µM, first compound 0.0316 µM
# [2] = second compound 0.0316 µM, first compound 0.1 µM
# [3] = second compound 0.0316 µM, first compound 0.316 µM
# [4] = second compound 0.0316 µM, first compound 1 µM
# [5] = second compound 0.0316 µM, first compound 3.16 µM
# [6] = second compound 0.0316 µM, first compound 10 µM
# [7] = second compound 0.1 µM, first compound 0.0316 µM
# [8] = second compound 0.1 µM, first compound 0.1 µM
# [9] = second compound 0.1 µM, first compound 0.316 µM
# [10] = second compound 0.1 µM, first compound 1 µM
# [11] = second compound 0.1 µM, first compound 3.16 µM
# [12] = second compound 0.1 µM, first compound 10 µM
# [13] = second compound 0.316 µM, first compound 0.0316 µM
# [14] = second compound 0.316 µM, first compound 0.1 µM
# [15] = second compound 0.316 µM, first compound 0.316 µM
# [16] = second compound 0.316 µM, first compound 1 µM
# [17] = second compound 0.316 µM, first compound 3.16 µM
# [18] = second compound 0.316 µM, first compound 10 µM
# [19] = second compound 1 µM, first compound 0.0316 µM
# [20] = second compound 1 µM, first compound 0.1 µM
# [21] = second compound 1 µM, first compound 0.316 µM
# [22] = second compound 1 µM, first compound 1 µM
# [23] = second compound 1 µM, first compound 3.16 µM
# [24] = second compound 1 µM, first compound 10 µM
# [25] = second compound 3.16 µM, first compound 0.0316 µM
# [26] = second compound 3.16 µM, first compound 0.1 µM
# [27] = second compound 3.16 µM, first compound 0.316 µM
# [28] = second compound 3.16 µM, first compound 1 µM
# [29] = second compound 3.16 µM, first compound 3.16 µM
# [30] = second compound 3.16 µM, first compound 10 µM
# [31] = second compound 10 µM, first compound 0.0316 µM
# [32] = second compound 10 µM, first compound 0.1 µM
# [33] = second compound 10 µM, first compound 0.316 µM
# [34] = second compound 10 µM, first compound 1 µM
# [35] = second compound 10 µM, first compound 3.16 µM
# [36] = second compound 10 µM, first compound 10 µM
# 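Note: spheroids exposed to the agents for seven days before readout.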
# 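Throughout, for viability, T/C: percent viability relative to DMSO vehicle control wells = 100%.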
smiles,measurement,setting,value
O=C(NO)c1cnc(N2CCN(S(=O)(=O)c3ccc4ccccc4c3)CC2)nc1 + Cc1cnc(CNC(=O)c2c(=O)c3ccc(N4CCCN(C)CC4)nc3n3c2sc2ccccc23)cn1,IC50,second compound 0.0316 µM,0.201 µM
same,IC50,second compound 0.1 µM,0.227 µM
same,IC50,second compound 0.316 µM,0.228 µM
same,IC50,second compound 1 µM,0.21 µM
same,IC50,second compound 3.16 µM,0.212 µM
same,IC50,second compound 10 µM,< 0.0316 µM
same,"viability, T/C",[1],112%
same,"viability, T/C",[2],94.8%
same,"viability, T/C",[3],20.9%
same,"viability, T/C",[4],0.93%
same,"viability, T/C",[5],0.18%
same,"viability, T/C",[6],0.19%
same,"viability, T/C",[7],107%
same,"viability, T/C",[8],97.8%
same,"viability, T/C",[9],30.7%
same,"viability, T/C",[10],1.22%
same,"viability, T/C",[11],0.15%
same,"viability, T/C",[12],0.24%
same,"viability, T/C",[13],102%
same,"viability, T/C",[14],109%
same,"viability, T/C",[15],27.9%
same,"viability, T/C",[16],0.56%
same,"viability, T/C",[17],0.14%
same,"viability, T/C",[18],0.21%
same,"viability, T/C",[19],93.6%
same,"viability, T/C",[20],83%
same,"viability, T/C",[21],31.8%
same,"viability, T/C",[22],1.83%
same,"viability, T/C",[23],0.13%
same,"viability, T/C",[24],0.18%
same,"viability, T/C",[25],74.8%
same,"viability, T/C",[26],91.3%
same,"viability, T/C",[27],32.3%
same,"viability, T/C",[28],0.19%
same,"viability, T/C",[29],0.15%
same,"viability, T/C",[30],0.16%
same,"viability, T/C",[31],45.8%
same,"viability, T/C",[32],11.5%
same,"viability, T/C",[33],0.31%
same,"viability, T/C",[34],0.22%
same,"viability, T/C",[35],0.22%
same,"viability, T/C",[36],0.23%
Cc1cccc(N(C)C(=O)C2C(O)CCN2c2nc(C)cc(C(F)(F)F)c2C#N)c1 (stereo unspecified) + CN(C)c1ccc(Nc2c3ccc(NC(=O)CCN4CCCC4)cc3nc3cc(NC(=O)CCN4CCCC4)ccc23)cc1,IC50,second compound 0.0316 µM,> 10 µM
same,IC50,second compound 0.1 µM,> 10 µM
same,IC50,second compound 0.316 µM,> 10 µM
same,IC50,second compound 1 µM,> 10 µM
same,IC50,second compound 3.16 µM,> 10 µM
same,IC50,second compound 10 µM,> 10 µM
same,"viability, T/C",[1],118%
same,"viability, T/C",[2],96.8%
same,"viability, T/C",[3],84.9%
same,"viability, T/C",[4],80.5%
same,"viability, T/C",[5],99.2%
same,"viability, T/C",[6],86%
same,"viability, T/C",[7],116%
same,"viability, T/C",[8],84.9%
same,"viability, T/C",[9],89.2%
same,"viability, T/C",[10],83.4%
same,"viability, T/C",[11],90.4%
same,"viability, T/C",[12],81.5%
same,"viability, T/C",[13],103%
same,"viability, T/C",[14],100%
same,"viability, T/C",[15],90.5%
same,"viability, T/C",[16],103%
same,"viability, T/C",[17],95.6%
same,"viability, T/C",[18],103%
same,"viability, T/C",[19],94.9%
same,"viability, T/C",[20],105%
same,"viability, T/C",[21],99.5%
same,"viability, T/C",[22],100%
same,"viability, T/C",[23],105%
same,"viability, T/C",[24],81.3%
same,"viability, T/C",[25],108%
same,"viability, T/C",[26],99.6%
same,"viability, T/C",[27],98.6%
same,"viability, T/C",[28],108%
same,"viability, T/C",[29],84.1%
same,"viability, T/C",[30],80.4%
same,"viability, T/C",[31],102%
same,"viability, T/C",[32],79.4%
same,"viability, T/C",[33],98.7%
same,"viability, T/C",[34],110%
same,"viability, T/C",[35],77.4%
same,"viability, T/C",[36],67.6%
CCc1c2c(nc3ccc(O)cc13)-c1cc3c(c(=O)n1C2)COC(=O)[C@]3(O)CC + CN(C)c1ccc(Nc2c3ccc(NC(=O)CCN4CCCC4)cc3nc3cc(NC(=O)CCN4CCCC4)ccc23)cc1,IC50,second compound 0.0316 µM,> 0.316 µM
same,IC50,second compound 0.1 µM,> 0.316 µM
same,IC50,second compound 0.316 µM,> 0.316 µM
same,IC50,second compound 1 µM,> 0.316 µM
same,IC50,second compound 3.16 µM,> 0.316 µM
same,IC50,second compound 10 µM,> 0.316 µM
same,"viability, T/C","second compound 0.0316 µM, first compound 0.000999 µM",89.2%
same,"viability, T/C","second compound 0.0316 µM, first compound 0.00316 µM",110%
same,"viability, T/C","second compound 0.0316 µM, first compound 0.00999 µM",89.4%
same,"viability, T/C",[1],94.9%
same,"viability, T/C","second compound 0.0316 µM, first compound 0.0999 µM",90.8%
same,"viability, T/C",[3],98%
same,"viability, T/C","second compound 0.1 µM, first compound 0.000999 µM",112%
same,"viability, T/C","second compound 0.1 µM, first compound 0.00316 µM",98.5%
same,"viability, T/C","second compound 0.1 µM, first compound 0.00999 µM",86.2%
same,"viability, T/C",[7],80%
same,"viability, T/C","second compound 0.1 µM, first compound 0.0999 µM",85.1%
same,"viability, T/C",[9],72%
same,"viability, T/C","second compound 0.316 µM, first compound 0.000999 µM",113%
same,"viability, T/C","second compound 0.316 µM, first compound 0.00316 µM",113%
same,"viability, T/C","second compound 0.316 µM, first compound 0.00999 µM",71.4%
same,"viability, T/C",[13],89.1%
same,"viability, T/C","second compound 0.316 µM, first compound 0.0999 µM",91.5%
same,"viability, T/C",[15],78%
same,"viability, T/C","second compound 1 µM, first compound 0.000999 µM",105%
same,"viability, T/C","second compound 1 µM, first compound 0.00316 µM",115%
same,"viability, T/C","second compound 1 µM, first compound 0.00999 µM",91.6%
same,"viability, T/C",[19],86.5%
same,"viability, T/C","second compound 1 µM, first compound 0.0999 µM",103%
same,"viability, T/C",[21],86.4%
same,"viability, T/C","second compound 3.16 µM, first compound 0.000999 µM",117%
same,"viability, T/C","second compound 3.16 µM, first compound 0.00316 µM",112%
same,"viability, T/C","second compound 3.16 µM, first compound 0.00999 µM",76.1%
same,"viability, T/C",[25],85%
same,"viability, T/C","second compound 3.16 µM, first compound 0.0999 µM",84.5%
same,"viability, T/C",[27],94.5%
same,"viability, T/C","second compound 10 µM, first compound 0.000999 µM",103%
same,"viability, T/C","second compound 10 µM, first compound 0.00316 µM",129%
same,"viability, T/C","second compound 10 µM, first compound 0.00999 µM",92%
same,"viability, T/C",[31],83.7%
same,"viability, T/C","second compound 10 µM, first compound 0.0999 µM",84.8%
same,"viability, T/C",[33],100%
